Reference: US8168861B2, “Compositions and methods for increasing cellulose production” (The Regents of the University of California, priority 2008, dated 2012)

Tests used:
[1] = tested on: Arabidopsis thaliana hypocotyl; test: Dark-grown hypocotyl growth of SRF mutants on isoxaben media; assay type: in vivo
Method: Data is taken from three independent experiments. Data is from hypocotyl lengths relative to wild type plants grown on the same plate and relative to mutants grown on DMSO control media. Student's t-test: *=p<0.05.
Arabidopsis thaliana ecotype Columbia-0 (Col-0) was used. Before plating seeds were surface sterilized. First, the seeds were washed in 95% ethanol for 10 minutes, which was removed then the sterilization solution was added (20% bleach, 0.05% Tween-20 (Sigma) and double distilled water) and shaken for 10 minutes. The sterilization solution was removed and the seeds were washed three times with sterile distilled water. The seeds were cold treated for 4 days at 4° C. after plating them on the plates. Two different growth media were prepared for these experiments. For the control conditions: one-half strength Murashige and Skoog (MS) salts (Sigma), 0.5% sucrose (Sigma), 0.8% phyto agar (Research Products International Corp.), 1×B5 (1,000× in double distilled water: 10% myo-inositol, 0.1% nicotinic acid and 0.1% pyroxidine HCl) and 1× Thiamin (2,000× in double distilled water: 0.2% thiamin HCl). The other growth media contained either no sucrose but all other components remained the same. Plants used in Fourier Transform Infrared (FT-IR) Microspectroscopy and hypocotyl length, were only grown on sucrose-deprived media in the dark for four days after cold treatment. For selection of mutants from the Arabidopsis Biological Resource Center (ARBC), they were first plated onto MS media containing 50 μg/ml Kanamycin to select for insertions containing the NTPII (Kanamycin resistance) gene. In the case this resistance is lost the seeds were also sown onto regular MS media containing no antibiotic and then transferred to soil after one week. Plants were then grown on soil for 2-3 weeks after transfer from the plates and they were examined for status of the T-DNA insertion. Only homozygous T3 and T4 knockout mutants were used for the following experiments.
Isoxaben is a specific inhibitor of cellulose synthesis by affecting the function of the CesA proteins involved in primary cell wall synthesis, such as CesA3 and CesA6 (Scheible et al., 2001; Persson et al., 2007). Because SRF7 in particular is co-expressed with these same CesA genes the effects of isoxaben on SRF mutants was examined. […] The results which are in agreement with the dark-grown hypocotyl phenotypes of the srf mutants supports the hypothesis that SRF6 and SRF7 regulate CesA-mediated synthesis of the primary cell wall

[2] = tested on: CesA and RLK gene expression; conditions: isoxaben treatment, cited from earlier work

## CCC(C)(CC)c1cc(NC(=O)c2c(OC)cccc2OC)on1 [isoxaben]
[1]; dominant negative of SRF7, 0.5 and 1 nM isoxaben
  response of hypocotyl length to isoxaben vs wild type: increased resistance
[1]; dominant negative of SRF7, 5 and 10 nM isoxaben
  response of hypocotyl length to isoxaben vs wild type: increase sensitivity
[1]; overexpression of SRF7 in srf7-1 mutant
  response of hypocotyl length to isoxaben vs wild type: wild type resistance
[1]; srf6-1 and srf7-1 mutants (extracellular domain insertion), up to 10 μM, p<0.05
  response of hypocotyl length to isoxaben vs wild type: significantly more resistant
[1]; srf6-2 and srf7-3 mutants
  response of hypocotyl length to isoxaben vs wild type: increased sensitivity
[1]; srf7-2 mutant
  response of hypocotyl length to isoxaben vs wild type: no difference in isoxaben response
[2]; FIG. 10B
  SRF6 gene expression: reduced gene expression
[2]; FIG. 10D
  primary cell wall CesA gene expression: reduces primary cell wall CesA gene expression
  secondary cell wall CesA gene expression: not the secondary cell wall CesAs
